Patent publication US20040038855A1 (priority 1999, published 2004)
Where a name gives a salt, the structure may show the parent alone. Read-outs that look alike come from different tables or passages of the source.

Assays:
human GALR1 receptor = target: T1, human GALR1 receptor (Homo sapiens, UniProt P47211); test: Binding affinity at the human GALR1 receptor
T1 construct: expressed in transfected cells
T1 sequence (P47211 1-349): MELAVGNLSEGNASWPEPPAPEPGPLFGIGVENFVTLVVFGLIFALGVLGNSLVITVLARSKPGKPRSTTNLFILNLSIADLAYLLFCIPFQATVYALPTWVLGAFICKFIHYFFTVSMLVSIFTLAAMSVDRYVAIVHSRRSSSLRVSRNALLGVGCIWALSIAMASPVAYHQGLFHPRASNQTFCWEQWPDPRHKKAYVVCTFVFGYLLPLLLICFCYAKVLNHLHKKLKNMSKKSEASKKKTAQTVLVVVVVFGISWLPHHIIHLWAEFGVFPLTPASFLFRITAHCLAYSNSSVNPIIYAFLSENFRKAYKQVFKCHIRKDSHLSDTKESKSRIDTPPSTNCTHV

human GALR3 receptor = target: T2, human GALR3 receptor (Homo sapiens, UniProt O60755); test: Binding affinity at the human GALR3 receptor
T2 construct: expressed in transfected cells
T2 sequence (O60755 1-368): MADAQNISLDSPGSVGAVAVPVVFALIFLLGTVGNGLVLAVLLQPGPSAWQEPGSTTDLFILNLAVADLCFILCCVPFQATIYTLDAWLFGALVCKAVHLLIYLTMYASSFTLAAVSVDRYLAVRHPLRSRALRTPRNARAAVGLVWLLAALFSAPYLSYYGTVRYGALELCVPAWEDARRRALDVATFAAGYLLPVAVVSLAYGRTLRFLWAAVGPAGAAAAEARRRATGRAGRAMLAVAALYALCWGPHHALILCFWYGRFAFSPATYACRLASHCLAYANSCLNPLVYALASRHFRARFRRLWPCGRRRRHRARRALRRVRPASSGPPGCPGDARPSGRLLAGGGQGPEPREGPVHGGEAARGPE

rat 5HT2C receptor = target: T3, rat 5HT2C receptor (Rattus norvegicus, UniProt P08909); test: Binding affinity at the rat 5HT2C receptor
T3 construct: expressed in transfected cells
T3 sequence (P08909 33-460): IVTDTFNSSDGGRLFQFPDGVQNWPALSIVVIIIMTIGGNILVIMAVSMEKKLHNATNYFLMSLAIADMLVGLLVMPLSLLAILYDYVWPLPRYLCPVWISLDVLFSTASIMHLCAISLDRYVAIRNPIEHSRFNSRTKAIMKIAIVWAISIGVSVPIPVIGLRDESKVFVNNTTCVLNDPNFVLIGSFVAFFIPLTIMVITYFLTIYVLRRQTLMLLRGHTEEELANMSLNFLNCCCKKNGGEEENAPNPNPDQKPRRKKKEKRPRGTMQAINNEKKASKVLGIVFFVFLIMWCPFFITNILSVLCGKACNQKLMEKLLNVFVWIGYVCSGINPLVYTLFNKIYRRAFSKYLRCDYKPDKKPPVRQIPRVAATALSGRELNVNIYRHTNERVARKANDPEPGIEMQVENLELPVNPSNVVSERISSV
Outline: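 Affinity measured by a literature binding protocol using rat 5HT2C cDNA expressed heterologously.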

[1] = target: T4, human Alpha-1a Adrenergic receptor (Homo sapiens, UniProt P35348); test: Binding affinity at the human alpha-1A adrenergic receptor
T4 construct: expressed in transfected cells
T4 sequence (P35348 1-466): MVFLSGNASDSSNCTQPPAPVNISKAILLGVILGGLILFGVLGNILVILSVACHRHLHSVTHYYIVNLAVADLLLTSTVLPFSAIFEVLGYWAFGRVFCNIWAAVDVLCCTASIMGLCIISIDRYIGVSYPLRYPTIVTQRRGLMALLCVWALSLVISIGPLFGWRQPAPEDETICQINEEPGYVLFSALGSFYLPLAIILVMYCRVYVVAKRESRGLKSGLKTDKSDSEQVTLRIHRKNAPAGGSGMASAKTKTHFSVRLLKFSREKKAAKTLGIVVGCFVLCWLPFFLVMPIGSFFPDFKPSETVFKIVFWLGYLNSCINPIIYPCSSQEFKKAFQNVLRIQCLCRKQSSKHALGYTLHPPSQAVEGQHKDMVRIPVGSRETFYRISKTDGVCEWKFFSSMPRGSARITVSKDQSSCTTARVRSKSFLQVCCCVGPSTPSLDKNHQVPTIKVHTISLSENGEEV
Outline: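 Receptor binding read-out throughout; membranes expressing human D1 or D2 receptor were used for those two targets.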

human MCH1 receptor = human MCH1 receptor (Homo sapiens, UniProt Q99705); test: Intracellular calcium response to MCH in COS-7 cells transfected with MCH1 (fluo-3, FLIPR): antagonist potency; type: cell-based; set-up: expressed in transfected cells; host or cells: COS-7
Sequence of human MCH1 receptor (Q99705 whole entry): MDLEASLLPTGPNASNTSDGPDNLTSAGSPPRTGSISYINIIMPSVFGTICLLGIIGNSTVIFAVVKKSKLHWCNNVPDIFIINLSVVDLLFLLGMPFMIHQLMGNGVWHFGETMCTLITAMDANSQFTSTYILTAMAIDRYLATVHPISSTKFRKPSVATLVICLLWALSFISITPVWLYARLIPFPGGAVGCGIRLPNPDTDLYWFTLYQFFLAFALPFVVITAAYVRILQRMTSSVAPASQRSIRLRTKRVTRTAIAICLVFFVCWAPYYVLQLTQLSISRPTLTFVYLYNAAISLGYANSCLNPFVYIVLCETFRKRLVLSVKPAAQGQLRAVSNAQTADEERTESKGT
Excerpt: MCH1 antagonist compounds were identified by their ability to inhibit the MCH-elicited response. […]. From the IC50 values, the antagonist potency (Kb)was derived using the Cheng-Prussof correction (Lazareno and Birdsall, 1993). […]

Compound: 2-(3,4-DIFLUOROPHENYL)4,5-DIHYDROIMIDAZOLE-1-CARBOXYLIC ACID {3-[4-PHENYL-4-(4-BROMO-5-METHYLTHIOPNEN-2-YL)]-PROPYL}-AMIDE [Example 19]
- Ki (human GALR1 receptor; Table 3a, read-out: hGALR1 Ki): > 50 µM
- Ki (human GALR1 receptor; Table 3b, read-out: hGALR1 Ki): > 50 µM
- Ki (human GALR3 receptor; Table 3a, read-out: hGALR3 Ki): > 50 µM
- Ki (human GALR3 receptor; Table 3b, read-out: hGALR3 Ki): > 50 µM
- Ki (rat 5HT2C receptor; Table 3a, read-out: r5HT2C Ki): 11.7 µM
- Ki (rat 5HT2C receptor; Table 3b, read-out: r5HT2C Ki): 11.7 µM
- Ki ([1]; Table 3d, read-out: hα1A Ki): 0.0025 µM
- Kb (human MCH1 receptor; Table 3a, antagonist potency, read-out: hMCH1 Kb): 7 nM
- Kb (human MCH1 receptor; Table 3b, antagonist potency, read-out: hMCH1 Kb): 7 nM
- Kb (human MCH1 receptor; antagonist potency, inhibition of the response to 500 nM MCH, IC50 corrected by Cheng-Prussof, read-out: Kb (nM) hMCH1): 7 nM

Compound: COC(=O)C1=C(C)NC(=O)N(C(=O)NCCCN2CCC3(CC2)OCc2ccccc23)C1c1ccc2nonc2c1 (single isomer, unassigned) [Example 18, HYDROCHLORIDE]
- Ki (human GALR1 receptor): > 50 µM
- Ki (human GALR1 receptor; read-out: hGALR1 Ki, Table 3b): > 50 µM
- Ki (human GALR3 receptor): > 50 µM
- Ki (human GALR3 receptor; read-out: hGALR3 Ki, Table 3b): > 50 µM
- Ki (rat 5HT2C receptor; Table 3a, read-out: r5HT2C Ki): 32.6 µM
- Ki [1]: 0.0017 µM
- Kb (human MCH1 receptor): 1 nM

Compound: CCC1=C(C(=O)O)C(c2ccc(F)c(F)c2)N(C(=O)NCCCN2CCC3(CC2)OCc2ccccc23)C(=O)N1 (single isomer, unassigned; (+)) [Example 4, (+)-1,2,3,6-TETRAHYDRO-1-1N-[4-(BENZO-4′,5′(H)FURAN)PIPERIDIN-1-YL]PROPYL}-CARBOXAMIDO-4-ETHYL-6-(3,4-DIFLUOROPHENYL)-2-OXO-PYRIMIDINE-5 CARBOXYLIC ACID HYDROCHLORIDE]
- Ki (human GALR1 receptor; Table 3a, read-out: hGALR1 Ki): > 50 µM
- Ki (human GALR1 receptor; Table 3b, read-out: hGALR1 Ki): > 50 µM
- Ki (human GALR3 receptor; Table 3a, read-out: hGALR3 Ki): > 50 µM
- Ki (human GALR3 receptor; Table 3b, read-out: hGALR3 Ki): > 50 µM
- Ki (rat 5HT2C receptor; Table 3a, read-out: r5HT2C Ki): 34.8 µM
- Kb (human MCH1 receptor; read-out: Kb (nM) hMCH1): 187 nM

Compound: COCC1=C(C(=O)OC)C(c2ccc(F)c(F)c2)N(C(=O)NCCCN2CCC(c3cccc(NC(C)=O)c3)CC2)C(=O)N1 (single isomer, unassigned; (-)) [Example 1, (−)-1,2,3,6-TETRAHYDRO-1-{N-[4-(3,-ACETAMIDO)-PHENYLPIPERIDIN-1-YL]PROPYL}CARBOXAMIDO-4-METHOXYMETHYL-6-(3,4-DIFLUORO-PHENYL)-2-OXOPYRIMIDINE-5-CARBOXYLIC ACID METHYL ESTER]
- Ki (human GALR1 receptor; Table 3a, read-out: hGALR1 Ki): > 50 µM
- Ki (human GALR1 receptor; Table 3b, read-out: hGALR1 Ki): > 50 µM
- Ki (human GALR3 receptor; Table 3a, read-out: hGALR3 Ki): > 50 µM
- Ki (human GALR3 receptor; Table 3b, read-out: hGALR3 Ki): > 50 µM
- Ki (rat 5HT2C receptor; Table 3a, read-out: r5HT2C Ki): > 50 µM
- Ki (rat 5HT2C receptor; Table 3b, read-out: r5HT2C Ki): > 50 µM
- Ki ([1]; Table 3d, read-out: hα1A Ki): 2.21 µM
- Kb (human MCH1 receptor; read-out: Kb (nM) hMCH1): 42 nM

Compound: CCCCN(CCCC)c1ccc(CN2CCC(CNC(=O)N3C(=O)NC(C)=C(C(=O)OC)C3c3ccc4nonc4c3)CC2)cc1 (centres unmarked) [Example 6]
- Ki (human GALR1 receptor; Table 3a, read-out: hGALR1 Ki): 11.1 µM
- Ki (human GALR1 receptor; Table 3b, read-out: hGALR1 Ki): 11.1 µM
- Ki (human GALR3 receptor; Table 3a, read-out: hGALR3 Ki): 21.1 µM
- Ki (human GALR3 receptor; Table 3b, read-out: hGALR3 Ki): 21.1 µM
- Ki (rat 5HT2C receptor; Table 3a, read-out: r5HT2C Ki): 25.5 µM
- Ki (rat 5HT2C receptor; Table 3b, read-out: r5HT2C Ki): 25.5 µM

Compound: COCC1=C(C(=O)OC)[C@H](c2ccc(F)c(F)c2)N(C(=O)NCCCN2CCC(c3cccc(NC(C)=O)c3)CC2)C(=O)N1 [Example 10, (+)-1,2,3,6-TETRAHYDRO-1-{N-[4-(3,-ACETAMIDO)-PHENYLPIPERIDIN-1-YL]PROPYL}CARBOXAMIDO-4-METHOXYMETHYL-6-(3,4-DIFLUORO-PHENYL)-2-OXOPYRIMIDINE-5-CARBOXYLIC ACID METHYL ESTER]
- Ki (human GALR1 receptor; Table 3a, read-out: hGALR1 Ki): > 50 µM
- Ki (human GALR1 receptor; Table 3b, read-out: hGALR1 Ki): > 50 µM
- Ki (human GALR3 receptor; Table 3a, read-out: hGALR3 Ki): > 50 µM
- Ki (human GALR3 receptor; Table 3b, read-out: hGALR3 Ki): > 50 µM
- Ki (rat 5HT2C receptor; Table 3a, read-out: r5HT2C Ki): 29.6 µM
- Ki ([1]; Table 3d, read-out: hα1A Ki): 0.0458 µM
- Kb (human MCH1 receptor; intracellular calcium mobilization assay, read-out: antagonist potency (Kb)): 0.3 nM

Compound: CCCCN(CCCC)c1ccc(CNC[C@H]2CC[C@H](NC(=O)c3cccc4ccccc34)CC2)cc1 [Example 13, N1-[4-([4-(DIBUTYLAMINO)BENZYL]AMINOMETHYL)CYCLOHEXYL]-1-NAPHTH-AMIDE]
- Ki (human GALR1 receptor; Table 3a, read-out: hGALR1 Ki): 11.3 µM
- Ki (human GALR1 receptor; Table 3b, read-out: hGALR1 Ki): 11.3 µM
- Ki (human GALR3 receptor; Table 3a, read-out: hGALR3 Ki): 5.98 µM
- Ki (human GALR3 receptor; Table 3b, read-out: hGALR3 Ki): 5.98 µM
- Ki (rat 5HT2C receptor; Table 3a, read-out: r5HT2C Ki): 25 µM
- Ki (rat 5HT2C receptor; Table 3b, read-out: r5HT2C Ki): 25 µM

Compound: COC(=O)C1=C(C)NC(=O)N(C(=O)NCCCN2CCC3(CC2)OCc2ccccc23)C1c1ccc(F)c(F)c1 (centres unmarked) [Example 20, 4-(3,4-DIFLUORPHENYL)-6-METHYL-2-OXO-3-{[3-(4-SPIRO[ISOBENZOFURAN-1(3H),4′-PIPERIDINE]PROPYL}-1,2,3,4-TETRAHYDROPYRIMIDINE-5-CARBOXYLIC ACID METHYL ESTER]
- Ki (human GALR1 receptor): > 50 µM
- Ki (human GALR1 receptor; read-out: hGALR1 Ki, Table 3b): > 50 µM
- Ki (human GALR3 receptor): > 50 µM
- Ki (human GALR3 receptor; read-out: hGALR3 Ki, Table 3b): > 50 µM
- Ki (rat 5HT2C receptor; Table 3a, read-out: r5HT2C Ki): 15.1 µM
- Ki (rat 5HT2C receptor; Table 3b, read-out: r5HT2C Ki): 15.1 µM

Compound: O=C(CCCN1CCC(O)(c2ccc(Cl)cc2)CC1)c1ccc(Cl)cc1 [Example 29]
- Ki (human GALR1 receptor): > 50 µM
- Ki (human GALR1 receptor; read-out: hGALR1 Ki, Table 3b): > 50 µM
- Ki (human GALR3 receptor): > 50 µM
- Ki (human GALR3 receptor; read-out: hGALR3 Ki, Table 3b): > 50 µM
- Ki (rat 5HT2C receptor): > 50 µM
- Ki (rat 5HT2C receptor; read-out: r5HT2C Ki, Table 3b): > 50 µM
